Reference: PubChem BioAssay (NCI)
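Growth conditions: 96-well plates. Treatment: test compound, 48 hours, 5 concentrations. Analysis: linear interpolation between bracketing concentrations; unreached endpoints set to highest concentration. Abbreviation: GI50, concentration required for 50% inhibition of growth. TGI: concentration producing complete growth inhibition.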

Experiments:
Experiment in all cases: NCI anticancer screen, dose series, 48 h
NCI/ADR-RES ovarian = tested on: NCI/ADR-RES ovarian
HOP-92 NSCLC = tested on: HOP-92 NSCLC
EKVX NSCLC = tested on: EKVX NSCLC
OVCAR-8 ovarian = tested on: OVCAR-8 ovarian
HCC-2998 colon = tested on: HCC-2998 colon
SN12C renal = tested on: SN12C renal
SNB-19 CNS = tested on: SNB-19 CNS
RPMI-8226 leukemia = tested on: RPMI-8226 leukemia
MOLT-4 leukemia = tested on: MOLT-4 leukemia
SK-OV-3 ovarian = tested on: SK-OV-3 ovarian
CCRF-CEM leukemia = tested on: CCRF-CEM leukemia
OVCAR-3 ovarian = tested on: OVCAR-3 ovarian
UACC-257 melanoma = tested on: UACC-257 melanoma
IGROV1 ovarian = tested on: IGROV1 ovarian
SF-295 CNS = tested on: SF-295 CNS
LOX IMVI melanoma = tested on: LOX IMVI melanoma
CAKI-1 renal = tested on: CAKI-1 renal
MALME-3M melanoma = tested on: MALME-3M melanoma
T-47D breast = tested on: T-47D breast
A549 NSCLC = tested on: A549 NSCLC
MDA-MB-231 breast = tested on: MDA-MB-231 breast
HS 578T breast = tested on: HS 578T breast
UACC-62 melanoma = tested on: UACC-62 melanoma
HOP-62 NSCLC = tested on: HOP-62 NSCLC
NCI-H522 lung = tested on: NCI-H522 lung
OVCAR-4 ovarian = tested on: OVCAR-4 ovarian
MDA-MB-435 = tested on: MDA-MB-435
NCI-H226 lung = tested on: NCI-H226 lung
HCT-15 colon = tested on: HCT-15 colon
UO-31 renal = tested on: UO-31 renal
PC-3 prostate = tested on: PC-3 prostate
SR leukemia = tested on: SR leukemia
NCI-H460 lung = tested on: NCI-H460 lung
OVCAR-5 ovarian = tested on: OVCAR-5 ovarian
BT-549 breast = tested on: BT-549 breast
SK-MEL-5 melanoma = tested on: SK-MEL-5 melanoma
NCI-H23 lung = tested on: NCI-H23 lung
KM12 colon = tested on: KM12 colon
M14 melanoma = tested on: M14 melanoma
HT29 colon = tested on: HT29 colon
DU-145 prostate = tested on: DU-145 prostate
SK-MEL-2 melanoma = tested on: SK-MEL-2 melanoma
SK-MEL-28 melanoma = tested on: SK-MEL-28 melanoma
U251 CNS = tested on: U251 CNS
SNB-75 CNS = tested on: SNB-75 CNS
COLO 205 colon = tested on: COLO 205 colon
RXF 393 renal = tested on: RXF 393 renal
K-562 leukemia = tested on: K-562 leukemia
SW-620 colon = tested on: SW-620 colon
SF-268 CNS = tested on: SF-268 CNS
ACHN renal = tested on: ACHN renal
TK-10 renal = tested on: TK-10 renal
HL-60(TB) leukemia = tested on: HL-60(TB) leukemia
MCF7 breast = tested on: MCF7 breast
HCT-116 colon = tested on: HCT-116 colon
786-0 renal = tested on: 786-0 renal
A498 renal = tested on: A498 renal

Q: What does the source list for `CC1=C2C(=C[C@@](C)(COS(C)(=O)=O)[C@@H]2O)C(=O)[C@](C)(O)C12CC2`?
A: GI50 (NCI/ADR-RES ovarian): 762 nM; TGI (NCI/ADR-RES ovarian): 5970 nM; GI50 (HOP-92 NSCLC): 357 nM; TGI (HOP-92 NSCLC): 1480 nM; GI50 (EKVX NSCLC): 1660 nM; TGI (EKVX NSCLC): 5220 nM; GI50 (OVCAR-8 ovarian): 1740 nM; TGI (OVCAR-8 ovarian): 12000 nM; GI50 (HCC-2998 colon): 648 nM; TGI (HCC-2998 colon): 2870 nM; GI50 (SN12C renal): 1990 nM; TGI (SN12C renal): 10700 nM; GI50 (SNB-19 CNS): 477 nM; TGI (SNB-19 CNS): 6010 nM; GI50 (RPMI-8226 leukemia): 3660 nM; TGI (RPMI-8226 leukemia): 52000 nM; GI50 (MOLT-4 leukemia): 331 nM; TGI (MOLT-4 leukemia): > 100000 nM; GI50 (SK-OV-3 ovarian): 447 nM; TGI (SK-OV-3 ovarian): 2220 nM; GI50 (CCRF-CEM leukemia): 344 nM; TGI (CCRF-CEM leukemia): > 100000 nM; GI50 (OVCAR-3 ovarian): 544 nM; TGI (OVCAR-3 ovarian): 4530 nM; GI50 (UACC-257 melanoma): 2390 nM; TGI (UACC-257 melanoma): 6900 nM; GI50 (IGROV1 ovarian): 556 nM; TGI (IGROV1 ovarian): 5670 nM; GI50 (SF-295 CNS): 293 nM; TGI (SF-295 CNS): 1280 nM; GI50 (LOX IMVI melanoma): 365 nM; TGI (LOX IMVI melanoma): 1690 nM; GI50 (CAKI-1 renal): 406 nM; TGI (CAKI-1 renal): 5360 nM; GI50 (MALME-3M melanoma): 459 nM; TGI (MALME-3M melanoma): 1760 nM; GI50 (T-47D breast): 1790 nM; TGI (T-47D breast): 7780 nM; GI50 (A549 NSCLC): 604 nM; TGI (A549 NSCLC): 6920 nM; GI50 (MDA-MB-231 breast): 1340 nM; TGI (MDA-MB-231 breast): 5990 nM; GI50 (HS 578T breast): 1770 nM; TGI (HS 578T breast): 4780 nM; GI50 (UACC-62 melanoma): 257 nM; TGI (UACC-62 melanoma): 731 nM; GI50 (HOP-62 NSCLC): 371 nM; TGI (HOP-62 NSCLC): 2040 nM; GI50 (NCI-H522 lung): 347 nM; TGI (NCI-H522 lung): 1560 nM; GI50 (OVCAR-4 ovarian): 1450 nM; TGI (OVCAR-4 ovarian): 5680 nM; GI50 (MDA-MB-435): 757 nM; TGI (MDA-MB-435): 2210 nM; GI50 (NCI-H226 lung): 2120 nM; TGI (NCI-H226 lung): 6170 nM; GI50 (HCT-15 colon): 443 nM; TGI (HCT-15 colon): 5140 nM; GI50 (UO-31 renal): 1570 nM; TGI (UO-31 renal): 5520 nM; GI50 (PC-3 prostate): 624 nM; TGI (PC-3 prostate): 4820 nM; GI50 (SR leukemia): 360 nM; TGI (SR leukemia): > 100000 nM; GI50 (NCI-H460 lung): 216 nM; TGI (NCI-H460 lung): 517 nM; GI50 (OVCAR-5 ovarian): 382 nM; TGI (OVCAR-5 ovarian): 3060 nM; GI50 (BT-549 breast): 632 nM; TGI (BT-549 breast): 2470 nM; GI50 (SK-MEL-5 melanoma): 272 nM; TGI (SK-MEL-5 melanoma): 755 nM; GI50 (NCI-H23 lung): 350 nM; TGI (NCI-H23 lung): 1560 nM; GI50 (KM12 colon): 579 nM; TGI (KM12 colon): 7130 nM; GI50 (M14 melanoma): 717 nM; TGI (M14 melanoma): 2540 nM; GI50 (HT29 colon): 414 nM; TGI (HT29 colon): 28600 nM; GI50 (DU-145 prostate): 366 nM; TGI (DU-145 prostate): 5040 nM; GI50 (SK-MEL-2 melanoma): 289 nM; TGI (SK-MEL-2 melanoma): 793 nM; GI50 (SK-MEL-28 melanoma): 678 nM; TGI (SK-MEL-28 melanoma): 2500 nM; GI50 (U251 CNS): 286 nM; TGI (U251 CNS): 1340 nM; GI50 (SNB-75 CNS): 1370 nM; TGI (SNB-75 CNS): 2860 nM; GI50 (COLO 205 colon): 761 nM; TGI (COLO 205 colon): 2840 nM; GI50 (RXF 393 renal): 335 nM; TGI (RXF 393 renal): 930 nM; GI50 (K-562 leukemia): 478 nM; TGI (K-562 leukemia): > 100000 nM; GI50 (SW-620 colon): 320 nM; TGI (SW-620 colon): > 100000 nM; GI50 (SF-268 CNS): 333 nM; TGI (SF-268 CNS): 2290 nM; GI50 (ACHN renal): 349 nM; TGI (ACHN renal): 3550 nM; GI50 (TK-10 renal): 2220 nM; TGI (TK-10 renal): 7140 nM; GI50 (HL-60(TB) leukemia): 466 nM; TGI (HL-60(TB) leukemia): 4530 nM; GI50 (MCF7 breast): 238 nM; TGI (MCF7 breast): 2550 nM; GI50 (HCT-116 colon): 315 nM; TGI (HCT-116 colon): > 31700 nM; GI50 (786-0 renal): 1960 nM; TGI (786-0 renal): 6740 nM; TGI (A498 renal): 694 nM
